Test results published in patent US20150105252A1, “SUBSTITUTED PYRAZOLES AS HERBICIDES” (E I DU PONT DE NEMOURS AND COMPANY, priority 2013, published 2015).

Experiments:
pigweed [1] = test: Test A preemergence; type: in vivo, Amaranthus retroflexus; conditions: preemergence; for Pigweed plant response rating (0 to 100 scale): 125 g ai/ha, visual injury approx. 10 days after treatment; for Pigweed plant response rating: 500 g ai/ha, visual injury after approx. 10 days, 0 to 100 scale (0 no effect, 100 complete control)
Summary of the method: (§1)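 Visual injury ratings, 0 = no effect to 100 = complete control, taken about 10 days after treatment against untreated controls. Test chemicals, in a non-phytotoxic surfactant-containing solvent, were sprayed onto soil preemergence or onto one- to two-leaf plants (2–10 cm) postemergence, in loam–sand soil under greenhouse conditions.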

barnyardgrass [2] = test: Test A preemergence; type: in vivo, Echinochloa crus-galli; conditions: preemergence
Summary of the method: as §1

ducksalad = test: Test B flood; type: in vivo, Heteranthera limosa; conditions: 250 g ai/ha, visual rating on 0 to 100 scale (0 no effect, 100 complete control), 13 to 15 days
Summary of the method: (§2)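 Flooded-pot test: compound dosed into 3 cm of standing water above soil when plants had two leaves. Visual control ratings (0–100) versus untreated plants after 13–15 d.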

velvetleaf [3] = test: Test A preemergence; type: in vivo, Abutilon theophrasti; conditions: preemergence; for Velvetleaf plant response rating (0 to 100 scale): 125 g ai/ha, visual injury approx. 10 days after treatment; for Velvetleaf plant response rating: 500 g ai/ha, visual injury after approx. 10 days, 0 to 100 scale (0 no effect, 100 complete control)
Summary of the method: as §1

morningglory [4] = test: Test A postemergence; type: in vivo, Ipomoea spp.
Summary of the method: as §1

barnyardgrass [5] = test: Test A postemergence; type: in vivo, Echinochloa crus-galli
Summary of the method: as §1

wheat [6] = test: Test A preemergence; type: in vivo, Triticum aestivum; conditions: preemergence; for Wheat plant response rating (0 to 100 scale): 125 g ai/ha, visual injury approx. 10 days after treatment; for Wheat plant response rating: 500 g ai/ha, visual injury after approx. 10 days, 0 to 100 scale (0 no effect, 100 complete control)
Summary of the method: as §1

morningglory [7] = test: Test A preemergence; type: in vivo, Ipomoea spp.; conditions: preemergence; for Morningglory plant response rating (0 to 100 scale): 125 g ai/ha, visual injury approx. 10 days after treatment; for Morningglory plant response rating: 500 g ai/ha, visual injury after approx. 10 days, 0 to 100 scale (0 no effect, 100 complete control)
Summary of the method: as §1

crabgrass, large [8] = test: Test A postemergence; type: in vivo, Digitaria sanguinalis
Summary of the method: as §1

sedge, umbrella = test: Test B flood; type: in vivo, Cyperus difformis; conditions: 250 g ai/ha, visual rating on 0 to 100 scale (0 no effect, 100 complete control), 13 to 15 days
Summary of the method: as §2

foxtail, giant [9] = test: Test A preemergence; type: in vivo, Setaria faberii; conditions: preemergence; for Foxtail, Giant plant response rating (0 to 100 scale): 125 g ai/ha, visual injury approx. 10 days after treatment; for Foxtail, Giant plant response rating: 500 g ai/ha, visual injury after approx. 10 days, 0 to 100 scale (0 no effect, 100 complete control)
Summary of the method: as §1

crabgrass, large [10] = test: Test A preemergence; type: in vivo, Digitaria sanguinalis; conditions: preemergence; for Crabgrass, Large plant response rating (0 to 100 scale): 125 g ai/ha, visual injury approx. 10 days after treatment; for Crabgrass, Large plant response rating: 500 g ai/ha, visual injury after approx. 10 days, 0 to 100 scale (0 no effect, 100 complete control)
Summary of the method: as §1

rice = test: Test B flood; type: in vivo, Oryza sativa; conditions: 250 g ai/ha, visual rating on 0 to 100 scale (0 no effect, 100 complete control), 13 to 15 days
Summary of the method: as §2

velvetleaf [11] = test: Test A postemergence; type: in vivo, Abutilon theophrasti
Summary of the method: as §1

pigweed [12] = test: Test A postemergence; type: in vivo, Amaranthus retroflexus
Summary of the method: as §1

barnyardgrass [13] = test: Test B flood; type: in vivo, Echinochloa crus-galli; conditions: 250 g ai/ha, visual rating on 0 to 100 scale (0 no effect, 100 complete control), 13 to 15 days
Summary of the method: as §2

corn [14] = test: Test A postemergence; type: in vivo, Zea mays
Summary of the method: as §1

wheat [15] = test: Test A postemergence; type: in vivo, Triticum aestivum
Summary of the method: as §1

foxtail, giant [16] = test: Test A postemergence; type: in vivo, Setaria faberii
Summary of the method: as §1

corn [17] = test: Test A preemergence; type: in vivo, Zea mays; conditions: preemergence; for Corn plant response rating (0 to 100 scale): 125 g ai/ha, visual injury approx. 10 days after treatment; for Corn plant response rating: 500 g ai/ha, visual injury after approx. 10 days, 0 to 100 scale (0 no effect, 100 complete control)
Summary of the method: as §1

[18] = 125 g ai/ha, visual injury, 0 to 100 scale, approx. 10 days
[19] = 500 g ai/ha, visual injury after approx. 10 days, 0 to 100 scale (0 no effect, 100 complete control)
[20] = Postemergence, 500 g ai/ha, 0 to 100 scale (0 no effect, 100 complete control)
[21] = postemergence, 125 g ai/ha, about 10 days, visual rating on 0 to 100 scale (0 no effect, 100 complete control)

Structure (SMILES)	Pigweed plant response rating (0 to 100 scale) (pigweed [1])	Pigweed plant response rating (pigweed [1])	Barnyardgrass plant response rating (barnyardgrass [2]; [18])	Barnyardgrass plant response rating (barnyardgrass [2]; [19])	Plant response rating, Ducksalad (ducksalad)	Velvetleaf plant response rating (0 to 100 scale) (velvetleaf [3])	Velvetleaf plant response rating (velvetleaf [3])	Morningglory plant response rating (morningglory [4]; [20])	Morningglory plant response rating (morningglory [4]; [21])	Barnyardgrass plant response rating (barnyardgrass [5]; [20])	Barnyardgrass plant response rating (barnyardgrass [5]; [21])	Wheat plant response rating (0 to 100 scale) (wheat [6])	Wheat plant response rating (wheat [6])	Morningglory plant response rating (0 to 100 scale) (morningglory [7])	Morningglory plant response rating (morningglory [7])	Crabgrass, Large plant response rating (crabgrass, large [8]; [20])	Crabgrass, Large plant response rating (crabgrass, large [8]; [21])	Plant response rating, Sedge, Umbrella (sedge, umbrella)	Foxtail, Giant plant response rating (0 to 100 scale) (foxtail, giant [9])	Foxtail, Giant plant response rating (foxtail, giant [9])	further results
CCCNC(=O)c1cc(CC)n(Cc2nc(C(F)(F)F)no2)n1 [Compound 164]	20	80	10	80	0	0	10	70	50	40	10	0	20	0	80	60	10	0	10	70	Crabgrass, Large plant response rating (0 to 100 scale) (crabgrass, large [10]): 80; Crabgrass, Large plant response rating (crabgrass, large [10]): 90; Plant response rating, Rice (rice): 0; Velvetleaf plant response rating (velvetleaf [11]; [20]): 60; Velvetleaf plant response rating (velvetleaf [11]; [21]): 20; Pigweed plant response rating (pigweed [12]; [20]): 40; Pigweed plant response rating (pigweed [12]; [21]): 20; Plant response rating, Barnyardgrass (barnyardgrass [13]): 0; Corn plant response rating (corn [14]; [20]): 40; Corn plant response rating (corn [14]; [21]): 10; Wheat plant response rating (wheat [15]; [20]): 20; Wheat plant response rating (wheat [15]; [21]): 0; Foxtail, Giant plant response rating (foxtail, giant [16]; [20]): 40; Foxtail, Giant plant response rating (foxtail, giant [16]; [21]): 10; Corn plant response rating (0 to 100 scale) (corn [17]): 0; Corn plant response rating (corn [17]): 50
CCc1cc(-c2ccc(C(F)(F)F)cc2)nn1C(=O)c1ccnc(C(F)(F)F)c1 [Compound 165]	10	20	0	0	0	0	0	20	10	10	10	0	0	0	0	20	10	0	0	0	Crabgrass, Large plant response rating (0 to 100 scale) (crabgrass, large [10]): 0; Crabgrass, Large plant response rating (crabgrass, large [10]): 0; Plant response rating, Rice (rice): 0; Velvetleaf plant response rating (velvetleaf [11]; [20]): 20; Velvetleaf plant response rating (velvetleaf [11]; [21]): 10; Pigweed plant response rating (pigweed [12]; [20]): 80; Pigweed plant response rating (pigweed [12]; [21]): 30; Plant response rating, Barnyardgrass (barnyardgrass [13]): 0; Corn plant response rating (corn [14]; [20]): 10; Corn plant response rating (corn [14]; [21]): 10; Wheat plant response rating (wheat [15]; [20]): 10; Wheat plant response rating (wheat [15]; [21]): 0; Foxtail, Giant plant response rating (foxtail, giant [16]; [20]): 10; Foxtail, Giant plant response rating (foxtail, giant [16]; [21]): 10; Corn plant response rating (0 to 100 scale) (corn [17]): 0; Corn plant response rating (corn [17]): 0
CCCCNC(=O)c1cc(Cl)n(Cc2cccc(C(F)(F)F)c2)n1 [Compound 171]	0	0	0	0	0	0	0	30	0	20	0	0	0	0	0	30	10	0	0	0	Crabgrass, Large plant response rating (0 to 100 scale) (crabgrass, large [10]): 0; Crabgrass, Large plant response rating (crabgrass, large [10]): 0; Plant response rating, Rice (rice): 0; Velvetleaf plant response rating (velvetleaf [11]; [20]): 30; Velvetleaf plant response rating (velvetleaf [11]; [21]): 20; Pigweed plant response rating (pigweed [12]; [20]): 50; Pigweed plant response rating (pigweed [12]; [21]): 20; Plant response rating, Barnyardgrass (barnyardgrass [13]): 0; Corn plant response rating (corn [14]; [20]): 20; Corn plant response rating (corn [14]; [21]): 0; Wheat plant response rating (wheat [15]; [20]): 0; Wheat plant response rating (wheat [15]; [21]): 0; Foxtail, Giant plant response rating (foxtail, giant [16]; [20]): 20; Foxtail, Giant plant response rating (foxtail, giant [16]; [21]): 10; Corn plant response rating (0 to 100 scale) (corn [17]): 0; Corn plant response rating (corn [17]): 0
